# Laboratory results: patent publication US7037717B1, “Cell line and screening method with the use of the same” (Chugai Seiyaku Kabushiki Kaisha, priority 1997, dated 2006)
# B1: mIL-1α: mouse interleukin 1α (R & D systems), inflammatory cytokine (protein, UniProt P01582 115-270, looked up)
# Interleukin-1 alpha: SAPYTYQSDLRYKLMKLVRQKFVMNDSLNQTIYQDVDKHYLSTTWLNDLQQEVKFDMYAYSSGGDDSKYPVTLKISDSQLFVSAQGEDQPVLLKELPETPKLITGSETDLIFFWKSINSKNYFTSAAYPELFIATKEQSRVHLARGLPSMTDFQIS
# Experiments:
# [1] = test system: CL-1 cells; assay: Calcification of CL-1 cells, Ca deposition per dish (O-CPC method); format: cell-based, mouse; conditions: 10^−9, 10^−8 or 10^−7 M; vs solvent control, on and after 2 weeks post confluent
# Method: CL-1 cells were cultured on a 60-mm dish (CORNING) at a cell density of 2000 cells/cm^2. When cells reached to confluent, 1,25-dihydroxyvitamin D3 was added at a final concentration of 10^−9, 10^−8 or 10^−7 M, then samples were weekly collected for 4 weeks post confluent to determine the Ca content with time. Namely, cell layers were washed with Ca-Mg-free PBS three times, then harvested in a crucible with a cell scraper (Nunc), then dried in an incubator at 60° C., then burned overnight in an oven at 800° C., and the remaining ash was dissolved in 500 μl of 6N hydrochloric acid (Wako Pure Chemical Industries). The Ca content in this solution was determined by the O-CPC method (Ca test Wako, available from Wako Pure Chemical Industries) to calculate the Ca deposition per dish.
# [2] = test system: CL-1 cells; assay: Differentiation of CL-1 cells into adipocytes, Oil red O-positive lipid droplets; format: cell-based, mouse
# Method: Influences of 1,25-dihydroxyvitamin D3 known to inhibit conversion of a adipocyte precursor cell line 3T3-L1 into adipocytes (Comp. Biochem. Physiol. 96A, (1990)) on differentiation of CL-1 cells into adipocytes were examined. CL-1 cells were cultured on a 4-well chamber slide (Nunc) at a cell density of 2500 cells/cm^2 to confluent, after which 1,25-dihydroxyvitamin D3 was added at a final concentration of […] for each medium change.
# [3] = test system: CL-1 cells; assay: Alizarin red S staining of CL-1 nodules; format: cell-based, mouse; conditions: 10 mM in medium, cultured one month
# Method: CL-1 cells were similarly cultured in the medium supplemented with 10 mM β-glycerophosphate. Then, they were fixed in 4% paraformaldehyde (pH 7.4), washed with distilled water, then stained with a 1% Alizarin red S (Merck) solution for 5 minutes, washed with water and then observed with naked eyes and with an optical microscope.
# [4] = test system: CL-1 cells; assay: Stainability of CL-1 cells with Alcian blue (pH 1.0), cartilage-inducing ability; format: cell-based, mouse; conditions: for Alcian blue (pH 1.0)-positive nodules: morphologically, compared with the medium alone
# Method: In order to examine whether or not CL-1 cells can be used as an in vitro screening system for cartilage-inducing materials, effects of hTGF-β, known to have cartilage-inducing ability (J. Biol. Chem. 261, 5693 (1986)) on the stainability of CL-1 cells with Alcian blue (pH 1.0) were examined. Namely, CL-1 cells were cultured on a 24-well plate (CORNING) at a cell density of 2500 cells/cm^2 to confluent, at which human transforming growth factor-β1 (hTGF-β1; AUSTRAL Biologicals) was added at a concentration of 0.1, 1.0 or 10 ng/ml, and cultivation took place for 3 weeks after the start of the addition with the medium being changed every 2 or 3 days. The addition of hTGF-β1 was performed for each medium change. After completion of cultivation, cells were fixed in 4% paraformaldehyde (Wako Pure Chemical Industries) and washed with water, then treated with 0.1 N hydrochloric acid (Wako Pure Chemical Industries) for 3 minutes, and then stained overnight with an Alcian blue (pH 1.0) solution (concentration: 1%). After completion of staining, samples were washed with distilled water three times and air-dried. The dried samples were immersed in 300 μl of a 6 M guanidine hydrochloride solution (Wako Pure Chemical Industries) for 3 hours and stirred, after which the absorbance of the guanidine hydrochloride solution at 620 nm was determined.
# [5] = test system: ATDC-5 cells; assay: Stainability of ATDC-5 cells with Alcian blue (pH 1.0); format: cell-based; conditions: 10 μg/ml insulin and 0.1 to 10 ng/ml hTGF-β1, 7 days post confluent
# Method: ATDC-5 cells known to differentiate into chondrocytes in the presence of insulin (Cell Diff. Dev. 30, 109 (1990); available from the Cell Bank of The Institute of Physical and Chemical Research) were also cultured by the same procedure in the presence of 10 μg/ml of insulin and 0.1 to 10 ng/ml of hTGF-β1 for 7 days post confluent to examine the stainability with Alcian blue (pH 1.0).
# [6] = test system: CL-1 cells; assay: Uptake of 35S-labeled sulfuric acid into CL-1 cell layers; format: cell-based, mouse
# Method: CL-1 cells were plated on a polystyrene 96-well plate (Wallac) at a cell density of 2000 cells/well, and incubated in (α-MEM (GIBCO) containing 10% inactivated serum (Intergen), 100 U/ml penicillin and 100 μg/ml streptomycin in an incubator at 37° C., 5% CO2, with the medium being changed with a fresh medium 3 times a week to reach confluency. After confluency was confirmed with a microscope, the medium was changed with a fresh medium containing human TGF-β1 (AUSTRAL BIOLOGICALS) at a concentration of 0.1, 1.0 or 10 ng/ml and incubation was continued. After 24 hours, ^35S-labeled sulfuric acid (Amersham) was added at 0.5 μCi/well and incubation was continued for further 24 hours. Then, the medium was changed with 200 μl of 0.1 M phosphate buffer (pH 7.4) containing 5% paraformaldehyde (Wako Pure Chemical Industries) and 0.4% cetylpyridinium chloride (Wako Pure Chemical Industries) for fixation at room temperature for 2 hours. After CL-1 cell layers were washed once with the same buffer, 100 μl of a liquid scintillator (Optiphase supermix, available from Wallac) was added to each well followed by stirring, so that the radioactivity of ^35S-labeled sulfuric acid incorporated into CL-1 cell layers was determined by a liquid scintillation counter (Microbeta 1450, available from Wallac).
# [7] = test system: CL-1 cells; assay: Cartilage destruction: Alcian blue stainability of hTGF-β1-enhanced CL-1 cells; format: cell-based, mouse
# Method: This example relates to an examination about whether or not cartilage-like nodules formed by culturing CL-1 cells in the presence of hTGF-β1 are destroyed by inflammatory cytokines IL-1 or TNF-α. CL-1 cells were cultured on a 24-well plate (CORNING) at a cell density of 2500 cells/cm^2 to confluent, after which hTGF-β1 was daily added to the medium for 5 days at a final concentration of 1.0 ng/ml. Then, mouse interleukin 1α (mIL-1α; R & D systems) and mouse tumor necrosis factor-a (mTNF-α; R & D systems) were daily added to the medium for 5 days at a final concentration of 0.1, 1.0 or 10 ng/ml, and the cells were cultured. Then, the stainability of CL-1 cells with Alcian blue (pH 1.0) was determined as described hereinbefore. As a result, the stainability with Alcian blue (pH 1.0) decreased in the presence of mIL-1α at 0.1 ng/ml or more (see FIG. 15) and mTNF-α at 1.0 ng/ml or more (see FIG. 16).
molecule,measurement,setting,value
"C=C1/C(=C\C=C2/CCC[C@]3(C)[C@@H]([C@H](C)CCCC(C)(C)O)CC[C@@H]23)C[C@@H](O)C[C@@H]1O [1,25-dihydroxyvitamin D3]",amount of Ca deposition,[1],significantly inhibited
same,intracellular accumulation of Oil red O-positive lipid droplets,"[2]; 10^−3 M at each medium change, 3 weeks",remarkably inhibits
O=P(O)(O)OC(CO)CO [β-glycerophosphate],Alizarin red S staining of nodules,[3],turned positive
hIGF-I: human insulin-like growth factor-I (CHEMICON INTERNATIONAL),stainability with Alcian blue (pH 1.0),"[4]; 100 ng/ml, similar test, 3 weeks",increase
same,Alcian blue (pH 1.0)-positive nodules,[4]; 3 weeks post confluent,clearly increased
same,accumulation of Oil red O-positive lipid droplets in CL-1 cells,[2]; compared with the medium alone,promoted
"hTGF-β1: human transforming growth factor-β1 (AUSTRAL Biologicals), known to have cartilage-inducing ability",stainability with Alcian blue (pH 1.0),"[4]; 0.1, 1.0 or 10 ng/ml added at each medium change, 3 weeks post confluent, absorbance at 620 nm",increased dose-dependently
same,Alcian blue (pH 1.0)-positive nodules,[4]; 3 weeks post confluent,clearly increased
same,stainability of ATDC-5 cells with Alcian blue (pH 1.0),[5],dose-dependently decreased
same,increase of the uptake of 35S-labeled sulfuric acid,"[6]; 0.1, 1.0 or 10 ng/ml, FIG. 21",about double
same,concentration with statistically significant increase of the uptake of 35S-labeled sulfuric acid,"[6]; vs control containing the medium alone, 48 h after addition",≥ 0.1 ng/mL
B1,destruction of cartilage-like tissues formed by CL-1 cells in the presence of human TGF-β1,[7],destroyed
same,concentration at which stainability with Alcian blue (pH 1.0) decreased,[7]; daily added for 5 days after 5 days of hTGF-β1 1.0 ng/ml,≥ 0.1 ng/ml
